Common to all, as to format: in vivo, Swiss Albino mice
One experiment relates to IL-10. The experiment can be described thus: Inflammatory markers: IL-10. The settings on record: for IL-10 (pg/ml): after 28 days of supplementation and exercise, mice, n = 8; for IL-10 Change over control [%]: vs Exercise Control, 28 days. As for the experimental part: (§1) Eight 8-week-old male Swiss Albino mice per experimental group were housed in an animal room at a constant temperature (22±3° C.) and humidity (30%-70%) under a 12:12 h light-dark cycle with standard laboratory diet (Purina 5L79, Rat and Mouse 18% protein; PMI Nutrition International, Brentwood, MO, USA). Distilled water was provided ad libitum. All animal experiments were reviewed and approved by the Institutional Animal Ethical Committee (IAEC) of Radiant Research Services Pvt. Ltd (Bangalore, India). All research was conducted in accordance with the guidelines of the committee for the purpose of control and supervision of experiments on animals (CPCSEA Registration Number-1803/PO/RcBi/S/2015/CPCSEA).
(§2) After one week of acclimation, the animals were randomly divided by body weight into different groups (n=8 per group in each test) for oral treatment once a day, at approximately same time each day (+1 hour), for 28 consecutive days: (1) vehicle control; (2) paraxanthine (3) dileucine; (4) paraxanthine+dileucine; (5) L-arginine; (6) L-arginine+dileucine; (7) L-citrulline; and (8) L-citrulline+dileucine. The dose administered to the mice was calculated using US Food and Drug Administration for human equivalence doses (HED), assuming a human weight of 60 kg. The following HED were used in this study: 2,000 mg dileucine (RAMPS™, Ingenious Ingredients, L.P., Lewisville, TX, USA; mouse 411 mg/kg bw), 100 mg paraxanthine, (ENFINITY™, Ingenious Ingredients, L.P Lewisville, TX, USA; mouse dose: 20.5 mg/kg bw/day); 3,000 mg L-arginine (Nanjing Nutrabuilding Bio-tech Co., LTD., No. 270 Jiqingmen Strect, Suning Huigu, Building E6, Room 2105, Nanjing, China 210017; mouse 616.55 mg/kg bw), 3,000 mg L-citrulline (Nanjing Nutrabuilding Bio-tech Co., LTD., No. 270 Jiqingmen Street, Suning Huigu, Building E6, Room 2105, Nanjing, China 210017; mouse 616.55 mg/kg bw). 0.5% Carboxy Methyl Cellulose sodium was used as vehicle and the test item formulations were prepared daily. Dosing was conducted via oral gavage using disposable polypropylene syringes with sterilized stainless steel gavage tubes. The food intake and water consumption were monitored daily, and BW was recorded weekly. The last dose on day 28 was given 1 hour prior to testing.
(§3) All animals were euthanized by 95% CO2 after 28 days of following their assigned treatment. Blood was collected immediately after euthanization by the retro-orbital route and was immediately centrifuged at 1500×g for 10 min at 4° C. before having all serum transferred into cryogenic tubes and stored at −80° C.
(§4) Serum and plasma samples were separated by centrifuging the blood at 8000 rpm for 10 mins and analyze the below mentioned biomarkers, Biomarkers: TC, TG, LDL and HDL, CRP, Serum lactate, Ammonia, Glucose, NO, IL-2, IL-6, IL-10. Blood was collected in EDTA tubes for below mentioned biomarkers, Immune health Biomarkers (T helper subsets): TH1, TH2, TH17, Tfh, iTreg.

For another experiment, the system named is TH17. As to the kind of experiment: Immune health biomarkers (T helper subsets): TH17. The settings on record: for TH17(%): T helper subset in blood after 28 days, mice, n = 8; for TH17 Change over control [%]: vs Exercise Control, 28 days. As for the experimental part:
PMI Nutrition International, Brentwood, MO, USA). Distilled water was provided ad libitum. All animal experiments were reviewed and approved by the Institutional Animal Ethical Committee (IAEC) of Radiant Research Services Pvt. Ltd (Bangalore, India). All research was conducted in accordance with the guidelines of the committee for the purpose of control and supervision of experiments on animals (CPCSEA Registration Number-1803/PO/[…]). […] (1) vehicle control; […] (4) paraxanthine+dileucine; […] The dose administered to the mice was calculated using US Food and Drug Administration for human equivalence doses (HED), assuming a human weight of 60 kg. […] Dosing was conducted via oral gavage using disposable polypropylene syringes with sterilized stainless steel gavage tubes. The food intake and water consumption were monitored daily, and BW was recorded weekly. The last dose on day 28 was given 1 hour prior to testing. Serum and plasma samples were separated by centrifuging the blood at 8000 rpm for 10 mins and analyze the below mentioned biomarkers, Biomarkers: TC, TG, LDL and HDL, CRP, Serum lactate, Ammonia, Glucose, NO, IL-2, IL-6, IL-10. Blood was collected in EDTA tubes for below mentioned biomarkers, Immune health Biomarkers (T helper subsets): […]

For the next experiment, the system named is IL-6. The experiment can be described thus: Inflammatory markers: IL-6. The note with it: for IL-6 Change over control [%]: vs Exercise Control, 28 days. How it is done: as §1, §2, §3, §4
The nature of experiment [1]: Treadmill exercise / endurance test. Set-up: Percentage Increase over control (number of shocks) / Percentage Increase over control (time on shock zone) / Percentage Increase over control (distance travelled): concentration or dose not given beside the values. The settings on record: for Distance travelled (m) by mice during treadmill exercise Day −0 / No. of shocks during treadmill exercise Day −0 / Time spent on shock zone during excercise [sec] Day −0: Day −0 (baseline), n = 8, mice; for No. of shocks during treadmill exercise Day −28 / Time spent on shock zone during excercise [sec] Day −28: Day −28, oral once a day for 28 days; for Distance travelled (m) by mice during treadmill exercise Day −28: Day −28, until exhaustion, oral once a day for 28 days; for Distance Increase over Day −0 / No of Shocks Decrease over Day −0 / Time spent on shock zone over Day −0: Day −28 minus Day −0; for Percentage Increase over control (time on shock zone): change vs Exercise Control; for Percentage Increase over control (time on shock zone) / Percentage Increase over control (number of shocks) / Percentage Increase over control (distance travelled): 28 days; for Percentage Increase over control (number of shocks): decrease in shocks vs Exercise Control; for Percentage Increase over control (distance travelled): increase vs Exercise Control. How it is done:
as §1, §2
During the treatment period, exercise training was completed using a motorized treadmill (Exer 3/6, Columbus Instruments international, OH, USA) at a moderate intensity of 20 cm/sec as maximal running speed, an incline of ten degrees and a shock intensity of 0.2 mA, for ten minutes. The speed of the treadmill was manually adjusted by increasing the belt speed by 5 cm/sec every two minutes throughout the total duration of ten minutes. All animals were adapted to this procedure daily 60 minutes after dosing for five days in a week during the treatment period.
On 28th day of each respective treatment, all animals were subjected to a muscle endurance test. Muscle endurance was accomplished on a motorized treadmill at a low to moderate intensity of 5-50 cm/sec as maximal running speed, an incline of ten degrees and a shock intensity of 0.2 mA, with the belt speed being increased by 5 cm/sec every two minutes until it reaches 50 cm/sec. Animals were subjected to the treadmill test until exhaustion. Distance traveled (m) was measured as a marker of exercise performance.

The next experiment has as its system nitric oxide. As to the kind of experiment: NO signaling: nitric oxide level. The settings on record: for Nitric oxide (μmol/L) (mg/L): after 28 days of supplementation and exercise, mice, n = 8; for Nitric oxide Change over control [%]: vs Exercise Control, 28 days. As for the experimental part:
as §1, §2, §3, §4

The mark [2] stands for this setting: after 28 days of supplementation and exercise, mice, n = 8.

The text below walks through data of patent US20240299484A1, “DILEUCINE COMPOSITIONS AND METHODS OF USE THEREOF” (Ingenious Ingredients, LP, priority 2023, published 2024).

Marks after values point to notes of the source that are not given here.

`NC(=O)NCCC[C@H](N)C(=O)O` [L-Citrulline, L-citrulline]: in the experiment on IL-10, the “IL-10 (pg/ml)” value is on record as 559.63** pg/ml and the “IL-10 Change over control [%]” value was found to be 4%. Moreover, in the experiment on TH17, the “TH17(%)” value is on record as 25.89*** % and the “TH17 Change over control [%]” value was 609%. In addition, the “IL-6” value in the experiment on IL-6 (setting [2]) is 349.52 pg/mL. For the same compound, in the experiment with IL-6, the “IL-6 Change over control [%]” value is on record as −7%. Further, in experiment [1], the “Distance travelled (m) by mice during treadmill exercise Day −0” value came out at 38.5 m, the “No. of shocks during treadmill exercise Day −0” value turned out to be 28.63, the “Time spent on shock zone during excercise [sec] Day −0” value (“Time spent … [sec] Day −0” below) worked out at 90.88 s and the “No. of shocks during treadmill exercise Day −28” value is listed as 17.00***. Besides, in experiment [1], the “Time spent on shock zone during excercise [sec] Day −28” value (“Time spent … [sec] Day −28” for short) is recorded as 36.63*** sec, the “Distance travelled (m) by mice during treadmill exercise Day −28” value was 312*** m, the “Distance Increase over Day −0” value stood at 273.5 m and the “No of Shocks Decrease over Day −0” value is listed as −11.63. Moreover, in experiment [1], the “Time spent on shock zone over Day −0” value was -54.25 s, the “Percentage Increase over control (time on shock zone)” value came out at 78%, the “Percentage Increase over control (number of shocks)” value came to 48% and the “Percentage Increase over control (distance travelled)” value was 97%. In the experiment on nitric oxide, the “Nitric oxide (μmol/L) (mg/L)” value was 77.61 µmol/L and the “Nitric oxide Change over control [%]” value worked out at 28%.
With `N=C(N)NCCC[C@H](N)C(=O)O` [L-Arginine, L-arginine], in the experiment with IL-10, the “IL-10 (pg/ml)” value is 565.47** pg/ml and the “IL-10 Change over control [%]” value was 5%. In the experiment on TH17, the “TH17(%)” value is listed as 26.16*** % and the “TH17 Change over control [%]” value is on record as 617%. Moreover, the “IL-6 (pg/ml)” value with IL-6 (setting [2]) was 351.39** pg/ml. Moreover, the “IL-6 Change over control [%]” value with IL-6 was −7%. Besides, in experiment [1], the “Distance travelled (m) by mice during treadmill exercise Day −0” value is listed as 39.13 m, the “No. of shocks during treadmill exercise Day −0” value was 30.38, the “Time spent … [sec] Day −0” value was 90 s and the “No. of shocks during treadmill exercise Day −28” value is given as 16.75***. Also, in experiment [1], the “Time spent … [sec] Day −28” value is reported as 35.13*** sec, the “Distance travelled (m) by mice during treadmill exercise Day −28” value is on record as 314.25*** m, the “Distance Increase over Day −0” value is 275.12 m and the “No of Shocks Decrease over Day −0” value was −13.63. In experiment [1], the “Time spent on shock zone over Day −0” value is -54.87 s, the “Percentage Increase over control (time on shock zone)” value came out at 80%, the “Percentage Increase over control (number of shocks)” value is reported as 73% and the “Percentage Increase over control (distance travelled)” value is recorded as 98%. Moreover, in the experiment with nitric oxide, the “Nitric oxide (μmol/L) (mg/L)” value is 77.98* μmol/L and the “Nitric oxide Change over control [%]” value is recorded as 29%.
On to `CC(C)C[C@H](NC(=O)[C@@H](N)CC(C)C)C(=O)O` [Dileucine, L-Leucyl-L-leucine], for which, in the experiment on IL-10, the “IL-10 (pg/ml)” value is reported as 569.36*** pg/ml and the “IL-10 Change over control [%]” value worked out at 8%. For the same compound, in the experiment with TH17, the “TH17(%)” value is 29.62*** % and the “TH17 Change over control [%]” value is recorded as 712%. Besides, the “IL-6 (pg/ml)” value in the experiment on IL-6 (setting [2]) was 343** pg/ml. The “IL-6 Change over control [%]” value with IL-6 is listed as −7%. In addition, in experiment [1], the “Distance travelled (m) by mice during treadmill exercise Day −0” value was determined as 38.88 m, the “No. of shocks during treadmill exercise Day −0” value stood at 27.63, the “Time spent … [sec] Day −0” value came out at 91 s and the “No. of shocks during treadmill exercise Day −28” value was 13***. In experiment [1], the “Time spent … [sec] Day −28” value is listed as 31.88*** sec, the “Distance travelled (m) by mice during treadmill exercise Day −28” value is listed as 328.5*** m, the “Distance Increase over Day −0” value is recorded as 289.62 m and the “No of Shocks Decrease over Day −0” value is recorded as −14.63. Besides, in experiment [1], the “Time spent on shock zone over Day −0” value was -59.12 s, the “Percentage Increase over control (time on shock zone)” value is on record as 94%, the “Percentage Increase over control (number of shocks)” value is 86% and the “Percentage Increase over control (distance travelled)” value is listed as 109%. In addition, in the experiment with nitric oxide, the “Nitric oxide (μmol/L) (mg/L)” value is 84.83*** μmol/L and the “Nitric oxide Change over control [%]” value is listed as 34%.
`Cn1c(=O)[nH]c2ncn(C)c2c1=O` [Paraxanthine, 1,7-dimethylxanthine]: in the experiment on IL-10, the “IL-10 (pg/ml)” value is 571.71*** pg/ml and the “IL-10 Change over control [%]” value was 8%. Moreover, in the experiment with TH17, the “TH17(%)” value was 31.33*** % and the “TH17 Change over control [%]” value is 758%. Also, the “IL-6 (pg/ml)” value in the experiment with IL-6 (setting [2]) is listed as 340.6** pg/ml. In the experiment on IL-6, the “IL-6 Change over control [%]” value was −8%. In experiment [1], the “Distance travelled (m) by mice during treadmill exercise Day −0” value came out at 41.13 m, the “No. of shocks during treadmill exercise Day −0” value stood at 26.5, the “Time spent … [sec] Day −0” value was 90.75 s and the “No. of shocks during treadmill exercise Day −28” value is 13.38***. In experiment [1], the “Time spent … [sec] Day −28” value was 32.25*** sec, the “Distance travelled (m) by mice during treadmill exercise Day −28” value was 325.75*** m, the “Distance Increase over Day −0” value was 284.62 m and the “No of Shocks Decrease over Day −0” value was −13.12. In addition, in experiment [1], the “Time spent on shock zone over Day −0” value is -58.5 s, the “Percentage Increase over control (time on shock zone)” value stood at 92%, the “Percentage Increase over control (number of shocks)” value is reported as 67% and the “Percentage Increase over control (distance travelled)” value was found to be 105%. For the same compound, in the experiment with nitric oxide, the “Nitric oxide (μmol/L) (mg/L)” value was 84.29*** μmol/L and the “Nitric oxide Change over control [%]” value is given as 33%.
